Results published in article PMC4502414, “Transforming berberine into its intestine-absorbable form by the gut microbiota” (Scientific Reports, 2015).

Tests used:
17 intestinal bacteria = test: Anti-bacterial test (MIC, broth microdilution); format: cell-based; settings: 17 intestinal bacteria strains, 24 h
Description: Seventeen bacterial strains (see above) were used in the susceptibility test for BBR and dhBBR. The bacterial strains, which belong to different species of bacteria, were collected and identified as described above. The minimum inhibitory concentrations (MICs) of BBR and dhBBR after 24 h were determined through the broth microdilution method according to the CLSI guidelines. BBR and dhBBR were tested at a concentration range of 8 to 512 μg/ml. The MIC was defined as the lowest concentration of an agent that prevents turbidity. The experiment was repeated three times. All of the bacterial strains tested in this study (S. aureus ATCC 29213, E. faecalis ATCC 29212, E. coli ATCC 25922, S. aureus 08-43, S. epidermidis 12-12, E. faecium 13-01, E. faecalis 13-01, E. coli 06-05, K. pneumoniae 13-14, Ps. aeruginosa 13-10, A. baumannii 13-02, E. cloacae 13-12, and P. mirabilis 13-01) were facultative anaerobes, of which S. aureus ATCC 29213, E. faecalis ATCC 29212 and E. coli ATCC 25922 were standard strains from ATCC (USA) and served as quality controls. L. casei ATCC 334, L. acidophilus ATCC 4356, B. longum ATCC 15707, and B. breve ATCC 15700 were also tested in this anti-bacterial experiment. Ampicillin was used as the positive control.

[1] = Transformation of dhBBR in pooled human intestinal microsomes (HIMs); format: in vitro ADME
Description: The mixture was incubated at 37 °C with exposure to air for 2, 5 and 10 min and was terminated by the addition of 200 μl of ice-cold acetonitrile. Then, 20 μl of the internal standard was added to the mixture, and the mixture was centrifuged at 14,000 g for 5 min. Fifty microliters of the supernatant was injected into the HPLC instrument for analysis. The control samples were incubated under the same conditions but without HIMs.

With COc1ccc2c(c1OC)CN1CCc3cc4c(cc3C1=C2)OCO4 [dhBBR, dihydroberberine] the “antibacterial effect compared with BBR” value (17 intestinal bacteria) was “even weaker than that of BBR in 5 of the 17 intestinal bacteria strains” and the dhBBR-to-BBR reversion [1] was “very rapidly”.
